Laboratory results reported in patent US20230398130A1, “METHODS AND COMPOSITIONS FOR DIFFERENTIATING STEM CELLS” (Massachusetts Institute of Technology, priority 2020, published 2023).
Structures can show the parent of a compound that is named as a salt.

Tested on: ISC-enriched organoids
Experiment: Primary screen, 384-well 2.5-D organoid differentiation (ENR+CD, 6 days, Target Selective Inhibitor Library, vs whole-plate median): ATP (CellTiter-Glo 3D, CTG)
Conditions: for Z.CTG: standard z score of FC

| Structure (SMILES) | Z.CTG (standard z score) (dose 0.08 uM) | Z.CTG (standard z score) (dose 0.40 uM) | Z.CTG (standard z score) (dose 2.00 uM) | Z.CTG (standard z score) (dose 10.00 uM) | Z.CTG (standard z score) (Dose 0.08 uM, primary screen) | Z.CTG (standard z score) (Dose 0.40 uM, primary screen) | Z.CTG (standard z score) (Dose 2.00 uM, primary screen) | Z.CTG (standard z score) (Dose 10.00 uM, primary screen) | other results |
| --- | --- | --- | --- | --- | --- | --- | --- | --- | --- |
| Cn1c(=O)cc(N2CCC[C@@H](N)C2)n(Cc2cc(F)ccc2C#N)c1=O [Trelagliptin] | 0.482 | −0.181 | 0.120 | 0.322 | – | – | – | – | – |
| CCOc1ccccc1-n1c(C(C)N2CCN(C(=O)COc3ccc(Cl)cc3)CC2)nc2ccccc2c1=O (centres unmarked) [Erastin] | – | – | – | – | – | – | – | – | Z.CTG (Dose 0.08 uM): 0.537; Z.CTG (Dose 0.40 uM): 0.681; Z.CTG (Dose 2.00 uM): 0.907; Z.CTG (Dose 10.00 uM): 0.711 |
| O=c1ncn2nc(Sc3ccc(F)cc3F)ccc2c1-c1c(Cl)cccc1Cl [VX-745] | 0.445 | 0.349 | 0.044 | 0.053 | – | – | – | – | – |
| Cc1cc2c(cc1CC(=O)c1sccc1S(=O)(=O)Nc1onc(C)c1Cl)OCO2 [Sitaxentan sodium] | – | – | – | – | 0.226 | −0.478 | −0.230 | −0.240 | – |
| Cc1[nH]c(/C=C2\C(=O)Nc3ccc(S(=O)(=O)N(C)c4cccc(Cl)c4)cc32)c(C)c1C(=O)N1CCN(C)CC1 [SU11274] | – | – | – | – | 0.852 | 0.645 | 0.139 | −1.954 | – |
| O=c1oc2cc(O)ccc2s1 [Tioxolone] | 0.586 | 0.212 | 0.105 | 0.783 | – | – | – | – | – |
| CN(C)CCc1c[nH]c2ccc(Cn3cncn3)cc12 [Rizatriptan Benzoate] | – | – | – | – | 0.512 | 0.260 | 0.302 | −0.129 | – |
| CCCSc1nc(N[C@@H]2C[C@H]2c2ccc(F)c(F)c2)c2nnn([C@@H]3C[C@H](OCCO)[C@@H](O)[C@H]3O)c2n1 [Ticagrelor] | −0.190 | −0.069 | −0.645 | −0.576 | – | – | – | – | – |
| COc1cc2c(cc1OC)[C@@H]1Cc3ccc(OC)c(OC)c3CN1CC2 [Rotundine] | – | – | – | – | 0.857 | 0.818 | 0.454 | 0.543 | – |
| C=CC(=O)Nc1cccc(Oc2nc(Nc3ccc(N4CCN(C)CC4)cc3OC)ncc2Cl)c1 [WZ4002] | 0.748 | 0.196 | 0.360 | −2.248 | – | – | – | – | – |
| CC(NC(=O)c1ccccc1/N=C/c1c(O)ccc2ccccc12)c1ccccc1 (centres unmarked) [Sirtinol] | – | – | – | – | −0.520 | 0.022 | −0.287 | −0.186 | – |
| CNC(=C[N+](=O)[O-])NCCSCc1ccc(CN(C)C)o1 [Ranitidine] | – | – | – | – | −0.121 | 0.370 | −0.165 | −0.625 | – |
| O=C(NOC[C@H](O)CO)c1ccc(F)c(F)c1Nc1ccc(I)cc1F [PD0325901] | – | – | – | – | – | – | – | – | Z.CTG (Dose 0.08 uM): −1.200; Z.CTG (Dose 0.40 uM): −2.760; Z.CTG (Dose 2.00 uM): −2.072; Z.CTG (Dose 10.00 uM): −2.301 |
| CCCN[C@H]1CCc2nc(N)sc2C1 [Pramipexole] | – | – | – | – | 0.261 | 0.436 | 0.062 | 0.551 | – |
| Cc1ccccc1C(=O)Nc1ccc(C(=O)N2CCCC(O)c3cc(Cl)ccc32)c(C)c1 (centres unmarked) [Tolvaptan] | 0.227 | −0.019 | −0.225 | −0.249 | – | – | – | – | – |
| C[C@@H](c1ncncc1F)[C@](O)(Cn1cncn1)c1ccc(F)cc1F [Voriconazole] | 0.617 | 0.730 | 0.680 | 0.783 | – | – | – | – | – |
| Cc1c(-c2ccc(O)cc2)n(Cc2ccc(OCCN3CCCCCC3)cc2)c2ccc(O)cc12 [Bazedoxifene HCl] | – | – | – | – | – | – | – | – | Z.CTG (primary screen, dose 0.08 uM): 1.009; Z.CTG (primary screen, dose 0.40 uM): 0.873; Z.CTG (primary screen, dose 2.00 uM): −1.862; Z.CTG (primary screen, dose 10.00 uM): −2.741 |
| C[C@H](CS)C(=O)N1CCC[C@H]1C(=O)O [Captopril] | – | – | – | – | – | – | – | – | Z.CTG (Dose 0.08 uM): −0.134; Z.CTG (Dose 0.40 uM): 0.257; Z.CTG (Dose 2.00 uM): 0.294; Z.CTG (Dose 10.00 uM): 0.255 |
| CCNC(=O)[C@H]1O[C@@H](n2cnc3c(N)nc(NCCc4ccc(CCC(=O)O)cc4)nc32)[C@H](O)[C@@H]1O [CGS 21680 HCl] | – | – | – | – | – | – | – | – | Z.CTG (Dose 0.08 uM): 0.724; Z.CTG (Dose 0.40 uM): 1.049; Z.CTG (Dose 2.00 uM): 0.799; Z.CTG (Dose 10.00 uM): −3.328 |
| CC(=O)OCC(=O)NCCCOc1cccc(CN2CCCCC2)c1 [Roxatidine Acetate HCl] | – | – | – | – | −0.095 | 0.050 | −0.245 | −0.564 | – |
